This is an account of results in ChEMBL document CHEMBL5331060, “Bisindole natural products: A vital source for the development of new anticancer drugs” (Eur J Med Chem, 2022).

Type in all cases: functional, cell-based
The subject of test [1] is MCF7. Briefly: Antiproliferative activity against human MCF7 cells assessed as inhibition of cell growth incubated for 48 hrs by MTT assay. The conditions noted are these: MCF7, 48 h. (In general: Tetrazolium dyes change colour on reduction, which living cells bring about.)
Test [2] deals with SW480. Nature of the test: Antiproliferative activity against human SW480 cells assessed as inhibition of cell growth incubated for 48 hrs by MTT assay. The conditions noted are these: SW480, 48 h.
For test [3], the system named is A549. Briefly: Antiproliferative activity against human A549 cells assessed as inhibition of cell growth incubated for 48 hrs by MTT assay. To be noted: A549, 48 h.
For test [4], the system named is HL-60. Briefly: Antiproliferative activity against human HL-60 cells assessed as inhibition of cell growth incubated for 48 hrs by MTT assay. To be noted: HL-60, 48 h.
Test [5] has as its system SMMC-7721. Nature of the test: Antiproliferative activity against human SMMC-7721 cells assessed as inhibition of cell growth incubated for 48 hrs by MTT assay. The conditions noted are these: SMMC-7721, 48 h.
Test [6] concerns K562. Briefly: Antiproliferative activity against human K562 cells assessed as inhibition of cell growth by MTT assay.
The test system of test [7] is A549. Briefly: Antiproliferative activity against human A549 cells assessed as inhibition of cell growth incubated for 72 hrs by SRB assay. The conditions noted are these: A549, 72 h.
Test [8] relates to MCF7. Briefly: Antiproliferative activity against human MCF7 cells assessed as inhibition of cell growth incubated for 72 hrs by SRB assay. To be noted: MCF7, 72 h. A general note: The SRB assay estimates cell density from bound dye.
Test [9] concerns SMMC-7721. Nature of the test: Antiproliferative activity against human SMMC-7721 cells assessed as inhibition of cell growth incubated for 48 hrs by MTS assay. To be noted: SMMC-7721, 48 h.

By IC50 is commonly meant the concentration that inhibits the measured activity by half. Turning to `C/C=C1/CN(C)[C@@]2(C)Cc3c([nH]c4ccccc34)[C@H](c3c(OC)ccc4c3NC3[C@@]4(O)CCN4C[C@H]5C[C@H](CC)[C@H]4[C@@]3(C(=O)OC)C5)C[C@H]1[C@]2(COC(C)=O)C(=O)OC` (stereo partly specified), the IC50 in test [1], in [2], in [3], in test [4] and in test [5] was 2.9 µM each time.
In the case of `CC(=O)C[C@@H]1c2c([nH]c3ccccc23)[C@H](c2c[nH]c3ccccc23)[C@H]1C(C)=O`, in test [6], the IC50 came out at 2200 nM.
In the case of `C/C=C1/CN2COC[C@]3(C(=O)OC)[C@@H]1C[C@@H](c1c(OC)ccc4c1NC1[C@@]4(O)CCN4C[C@H]5C[C@H](CC)[C@H]4[C@@]1(C(=O)OC)C5)c1[nH]c4ccccc4c1C[C@]23C` (stereo partly specified), the IC50 in test [1] was found to be 4.7 µM; in [2], 10.3 µM; in test [3], 10.3 µM; in [4] it was 10.3 µM; in [5], 10.3 µM.
As for `CC[C@]12C=CCN3CCc4c(n(c5cc(OC)ccc45)[C@@H](c4cc5c(cc4OC)NC4=C(C(=O)OC)C[C@]6(CC)CCCN7CC[C@@]45[C@@H]76)C1)[C@@H]32`, the IC50 in test [1], in [2], in [3], in [4] and in test [5] was 3.24 µM each time.
Take `C/C=C1/CN(C)[C@H]2Cc3c([nH]c4ccccc34)[C@H](c3ccc4[nH]c5c(c4c3)CCN3[C@H]4[C@@H](CC)C[C@H](C[C@@]54C(=O)OC)[C@@H]3CC(C)=O)C[C@H]1[C@@H]2C(=O)OC`: the IC50 in test [7] and in test [8] was less than 10 µM throughout.
For the molecule `CC[C@]12C=CCN3CC[C@]4(C(=C(C(=O)OC)C1)Nc1cc(OC)c([C@@H]5[C@H]6O[C@H]6[C@@]6(CC)C=C(C(=O)OC)C7Nc8c(cc(O)c(OC)c8OC)[C@@]78CCN5[C@@H]68)cc14)[C@@H]32` (stereo partly specified), in test [9], the IC50 stood at 2010 nM.
Take `C/C=C1/CN2COC[C@]3(C(=O)OC)[C@@H]1C[C@@H](c1cccc4c5c([nH]c14)[C@]1(C(=O)OC)C[C@@H]4C[C@H](CC)[C@@H]1N(CC5)[C@@H]4CC(C)=O)c1[nH]c4ccccc4c1C[C@]23C`: the IC50 in test [1], in test [2], in [3], in test [4] and in test [5] was 2.9 µM each time.
Consider `C/C=C1/CN(C)[C@H]2Cc3c([nH]c4ccccc34)[C@H](c3ccc4[nH]c5c(c4c3)CCN3C[C@@H]4C[C@H](CC)[C@H]3[C@@H]5C4)C[C@H]1[C@@H]2C(=O)OC`, for which the concentration for half-maximal inhibition (IC50) in [7] and in test [8] was less than 10 µM in each case.
On to `CC[C@]12C=CCN3CCc4c(n(c5ccccc45)[C@@H](c4cc5c(cc4OC)NC4=C(C(=O)OC)C[C@]6([C@@H](C)OC(C)=O)CCCN7CC[C@@]45[C@@H]76)C1)[C@@H]32`, for which the IC50 in test [1], in [2], in test [3], in test [4] and in test [5] was 3.24 µM in each case.
On to `CC[C@@H]1CN(C)[C@H]2Cc3c([nH]c4ccccc34)[C@H](c3c(OC)ccc4c5c([nH]c34)[C@]3(C(=O)OC)C[C@@H]4C[C@H](CC)[C@@H]3N(CC5)[C@@H]4CC(C)=O)C[C@H]1[C@@H]2C(=O)OC`, for which the 50% inhibitory concentration (IC50) in test [7] and in test [8] was 10.9 µM each time.
With `CC[C@@H]1CN(C)[C@H]2Cc3c([nH]c4ccccc34)[C@H](c3ccc4c5c([nH]c4c3)[C@@H]3C[C@@H]4C[C@H](CC)[C@@H]3N(CC5)[C@@H]4CC(C)=O)C[C@H]1[C@@H]2C(=O)OC`, the IC50 in [7] and in test [8] was less than 10 µM throughout.
As for `CC[C@]12C=CCN3CC[C@]4(C(=C(C(=O)OC)C1)Nc1cc5c(cc14)[C@@H]1[C@H](O5)[C@@H](O)[C@@]4(CC)C=C(C(=O)OC)C5Nc6c(ccc(OC)c6O)[C@@]56CCN1[C@@H]46)[C@@H]32` (stereo partly specified), the IC50 in test [9] was 1720 nM.
For `CC[C@@H]1CN(C)[C@H]2Cc3c([nH]c4ccccc34)[C@H](c3ccc4c5c([nH]c4c3)[C@]3(C(=O)OC)C[C@@H]4C[C@H](CC)[C@@H]3N(CC5)C4)C[C@@H]1[C@@H]2C(=O)OC`, the IC50 in test [7] was more than 10 µM; in test [8], less than 10 µM.
For `CC[C@@H]1CN(C)[C@H]2Cc3c([nH]c4ccccc34)[C@H](c3cc4[nH]c5c(c4cc3OC)CCN3C[C@H]4C[C@H](CC)[C@H]3[C@@]5(C(=O)OC)C4)C[C@H]1[C@@H]2C(=O)OC`, the IC50 in [7] and in test [8] was less than 10 µM throughout.
Consider `C/C=C1\CN(C)[C@H]2Cc3c([nH]c4ccccc34)[C@H](c3cc4[nH]c5c(c4cc3OC)CCN3C[C@H]4C[C@H](CC)[C@H]3[C@H]5C4)C[C@H]1[C@@H]2C(=O)OC`, for which the IC50 in test [7] and in test [8] was less than 10 µM throughout.
Consider `CC[C@@H]1CN(C)[C@H]2Cc3c([nH]c4ccccc34)[C@H](c3cc4c5c([nH]c4cc3OC)[C@@]3(C(=O)OC)C[C@H]4C[C@@H](CC)[C@@H]3N(CC5)C4)C[C@H]1[C@@H]2C(=O)OC`, for which the values for the IC50 in test [7] and in test [8] were more than 10 µM and less than 10 µM, respectively.
In the same order, the values of `CC[C@@H]1CN(C)[C@H]2Cc3c([nH]c4ccccc34)[C@H](c3ccc4c5c([nH]c4c3)[C@]3(C(=O)OC)C[C@@H]4C[C@H](CC)[C@@H]3N(CC5)[C@@H]4CCOC)C[C@H]1[C@@H]2C(=O)OC` are 1.19 µM and 2.25 µM.
In the case of `CC[C@@H]1CN(C)[C@H]2Cc3c([nH]c4ccccc34)[C@H](c3ccc4[nH]c5c(c4c3)CCN3C[C@@H]4C[C@@H](CC)[C@H]3[C@@H]5C4)C[C@H]1[C@@H]2C(=O)OC`, the IC50 in test [7] and in [8] was less than 10 µM in each case.
Take `C/C=C1\CN(C)[C@H]2Cc3c([nH]c4ccccc34)[C@H](c3c(OC)ccc4c5c([nH]c34)[C@]3(C(=O)OC)C[C@@H]4C[C@H](CC)[C@@H]3N(CC5)[C@@H]4CC(C)=O)C[C@H]1[C@@H]2C(=O)OC`: the IC50 in [7] and in [8] was less than 10 µM each time.
Take `CC[C@@H]1CN(C)[C@H]2Cc3c([nH]c4ccccc34)[C@H](c3cc4[nH]c5c(c4cc3OC)CCN3[C@H](CC(C)=O)[C@H]4C[C@H](CC)[C@H]3[C@@]5(C(=O)OC)C4)C[C@H]1[C@@H]2C(=O)OC`: the results for the IC50 in [7] and in test [8] were more than 10 µM and less than 10 µM, respectively.
For `CC[C@@H]1CN(C)[C@H]2Cc3c([nH]c4ccccc34)[C@H](c3ccc4[nH]c5c(c4c3)CCN3[C@H](CC(C)=O)[C@@H]4C[C@@H](CC)[C@H]3[C@]5(C(=O)OC)C4)C[C@H]1[C@@H]2C(=O)OC`, in that order: 10.9 µM and 10.9 µM.
Turning to `C/C=C1\CN(C)[C@H]2Cc3c([nH]c4ccccc34)[C@H](c3c(OC)ccc4c5c([nH]c34)[C@]3(C(=O)OC)C[C@@H]4C[C@H](CC)[C@@H]3N(CC5)C4)C[C@H]1[C@@H]2C(=O)OC`, the IC50 in test [7] and in [8] was less than 10 µM throughout.
Regarding `CC[C@]12CCCN3CCc4c(n(c5ccccc45)[C@@H](c4cc5c(cc4OC)NC4=C(C(=O)OC)C[C@]6(CC)CCCN7CC[C@@]45[C@@H]76)C1)[C@@H]32`, the IC50 in [1], in [2], in test [3], in [4] and in [5] was 3.24 µM throughout.
